{"source": "patent EP4789671A1", "about": "“PHARMACEUTICAL COMPOSITION CONTAINING URACIL DERIVATIVE” (priority 2023, dated 2025)", "key": {"[1]": {"target": "T1, Recombinant SARS-CoV-2 3CL Protease (Severe acute respiratory syndrome coronavirus 2, UniProt P0DTD1)", "T1 construct": "Recombinant SARS-CoV-2 3CL Protease; purchased", "assay": "Inhibitory activity test on SARS-CoV-2 3CL protease (Test Example 2-1)", "assay_type": "biochemical", "conditions": "8 µM substrate, 6 nM or 0.6 nM enzyme, 3 to 5 hours"}, "[2]": {"tested_on": "SARS-CoV-2", "assay": "Cytopathic effect (CPE) suppression test using HEK293T/ACE2-TMPRSS2 cells (Test Example 1)", "assay_type": "cell-based", "conditions": "Severe acute respiratory syndrome coronavirus 2, HEK-293T, 72 h"}, "[3]": {"tested_on": "SARS-CoV-2", "assay": "Inhibitory activity of cytopathic effect (CPE) in VeroE6/TMPRSS2 cells (Test Example 3)", "assay_type": "cell-based"}, "[4]": {"tested_on": "SARS-CoV-2 hCoV-19/Japan/TY7-501/2021", "assay": "Effect of human, mouse and hamster sera on anti-SARS-CoV-2 activity (Test Example 7)", "assay_type": "cell-based", "conditions": "Severe acute respiratory syndrome coronavirus 2, 24 h, VeroE6/TMPRSS2 cells, viral RNA, 1 day"}, "[5]": {"tested_on": "SARS-CoV-2 hCoV-19/Japan/TY41-702/2022 strain (Omicron BE.1/BA.5-like)", "set-up": "species or system Syrian hamsters", "conditions": "hamster, in vivo"}, "[6]": {"tested_on": "SARS-CoV-2 hCoV-19/Japan/TY11-927/2021", "assay_type": "in vivo, Syrian hamsters", "conditions": "aged (11-month-old) hamsters"}, "[7]": {"tested_on": "SARS-CoV-2 hCoV-19/Japan/TY11-927/2021 (Delta)", "assay_type": "in vivo, Syrian hamsters", "conditions": "4 days after initiation of co-housing"}, "[8]": {"tested_on": "SARS-CoV-2 hCoV-19/Japan/TY41-702/2022 strain (Omicron BE.1/BA.5-like)", "set-up": "species or system Syrian hamsters", "conditions": "hamster, in vivo", "remark": "listed apart in the source"}, "[9]": {"tested_on": "HCoV-229E", "assay": "microbe, parasite or virus in culture", "assay_type": "cell-based", "conditions": "Human coronavirus 229E, MRC5; MRC-5 cells, 72 hours"}, "[10]": {"tested_on": "SARS-CoV-2 hCoV-19/Japan/TY41-702/2022 strain (Omicron BE.1/BA.5-like)", "assay_type": "in vivo, Syrian hamsters"}, "[11]": {"tested_on": "HCoV-OC43", "assay": "microbe, parasite or virus in culture", "assay_type": "cell-based", "conditions": "Betacoronavirus 1, OC43, MRC5; MRC-5 cells, 72 hours"}, "[12]": {"assay": "Cytotoxicity in MRC-5 cells in the absence of virus (Test Example 5)", "assay_type": "cell-based", "conditions": "human", "description": "MRC-5 cells (2×10^4 cells/well) suspended in growth medium (DMEM supplemented with 10% FBS and penicillin-streptomycin) were seeded into 96-well plates on the day before infection. On the following day, HCoV-OC43 (300 TCID50/well) suspended in maintenance medium (MEM supplemented with 2% FBS and penicillin-streptomycin) was added to infect the cells for 1 hour. The viral fluid is then removed, maintenance medium containing the reagent to be tested is added, and cultured for 72 hours in a CO2 incubator. To evaluate the cytotoxicity of the reagent to be tested, the same procedure was performed in the absence of virus.\nThe plate that has been cultured for 72 hours is returned to room temperature, subsequently CellTiter-Glo (registered trademark) 2.0 is dispensed into each well, and the plate is mixed using a plate mixer. After standing for a predetermined period of time, the luminescent signal (Lum) is measured using a plate reader."}, "[13]": {"tested_on": "SARS-CoV-2 hCoV-19/Japan/TY41-702/2022 (Omicron BE.1/BA.5-like)", "assay": "Viral proliferation-suppression effect using human airway epithelial cells (Test Example 8)", "assay_type": "cell-based", "conditions": "Severe acute respiratory syndrome coronavirus 2, Epithelial cell, 48 h"}}, "note": "“And” between values parts separate entries of the source, which are not always exact repeats. Identical values can stand only once. Like-named read-outs stand apart in the source and are kept apart here.", "data": [{"compound": "C#CCn1c(N2CC3(C2)CC(F)(F)C3)c(-c2ccc(F)c(Cl)c2)c(=O)n(-c2cncc(Cl)c2)c1=O", "note": "[Compound II-1]", "values": [{"measurement": "IC50", "setting": "[1]", "result": 0.68, "unit": "nM"}]}, {"compound": "[2H]c1cc(F)c(Cl)c([2H])c1-c1c(N2CC3(C2)CC(F)(F)C3)n(CC#N)c(=[18O])n(-c2cncc(Cl)c2)c1=[18O]", "note": "[Compound I-2]", "values": [{"measurement": "EC50", "setting": "[2]", "result": 2.36, "unit": "nM"}]}, {"compound": "N#CCn1c(N2CC3(C2)CC(F)(F)C3)c(-c2ccc(F)c(Cl)c2)c(=O)n(-c2cncc(Cl)c2)c1=O", "note": "[Compound I-1]", "values": [{"measurement": "EC50", "setting": "[3]; Severe acute respiratory syndrome coronavirus 2, VeroE6/TMPRSS2, Alpha, B. 1. 1. 7, strain QHN002", "result": "3.85 ± 1.41", "unit": "nM"}, {"measurement": "EC50", "setting": "[3]; Severe acute respiratory syndrome coronavirus 2, VeroE6/TMPRSS2, Ancestral, Pango lineage A, strain WK-521", "result": "8.77 ± 1.92", "unit": "nM"}, {"measurement": "EC50", "setting": "[3]; Severe acute respiratory syndrome coronavirus 2, VeroE6/TMPRSS2, Beta, B. 1. 351, strain TY8-612", "result": "9.64 ± 1.2", "unit": "nM"}, {"measurement": "EC50", "setting": "[3]; Severe acute respiratory syndrome coronavirus 2, VeroE6/TMPRSS2, Delta, AY. 122, strain TY11-927", "result": "4.91 ± 1.29", "unit": "nM"}, {"measurement": "EC50", "setting": "[3]; Severe acute respiratory syndrome coronavirus 2, VeroE6/TMPRSS2, Gamma, P. 1, strain TY7-501", "result": "8.91 ± 1.62", "unit": "nM"}, {"measurement": "EC50", "setting": "[3]; Severe acute respiratory syndrome coronavirus 2, VeroE6/TMPRSS2, Omicron BA. 1. 1, strain TY38-871", "result": 2.63, "unit": "nM"}, {"measurement": "EC50", "setting": "[3]; Severe acute respiratory syndrome coronavirus 2, VeroE6/TMPRSS2, Omicron BA. 2, strain TY40-385", "result": "7.38 ± 3.82", "unit": "nM"}, {"measurement": "EC50", "setting": "[3]; Severe acute respiratory syndrome coronavirus 2, VeroE6/TMPRSS2, Omicron BA. 2. 12. 1, strain TY41-721", "result": "2.27 ± 0.26", "unit": "nM"}, {"measurement": "EC50", "setting": "[3]; Severe acute respiratory syndrome coronavirus 2, VeroE6/TMPRSS2, Omicron BA. 2. 75, strain TY41-716", "result": "8.44 ± 1.25", "unit": "nM"}, {"measurement": "EC50", "setting": "[3]; Severe acute respiratory syndrome coronavirus 2, VeroE6/TMPRSS2, Omicron BA. 4. 1, strain TY41-703", "result": "2.45 ± 0.4", "unit": "nM"}, {"measurement": "EC50", "setting": "[3]; Severe acute respiratory syndrome coronavirus 2, VeroE6/TMPRSS2, Omicron BA. 4. 6, strain TY41-763", "result": "6.91 ± 1.21", "unit": "nM"}, {"measurement": "EC50", "setting": "[3]; Severe acute respiratory syndrome coronavirus 2, VeroE6/TMPRSS2, Omicron BA. 5. 2. 1, strain TY41-704", "result": "6.8 ± 1.38", "unit": "nM"}, {"measurement": "EC50", "setting": "[3]; Severe acute respiratory syndrome coronavirus 2, VeroE6/TMPRSS2, Omicron BE. 1/BA. 5-like, strain TY41-702", "result": "6.54 ± 3.49", "unit": "nM"}, {"measurement": "EC50", "setting": "[3]; Severe acute respiratory syndrome coronavirus 2, VeroE6/TMPRSS2, Omicron BF. 7, strain TY41-820", "result": "9.49 ± 0.56", "unit": "nM"}, {"measurement": "EC50", "setting": "[3]; Severe acute respiratory syndrome coronavirus 2, VeroE6/TMPRSS2, Omicron BF. 7. 4. 1, strain TY41-828", "result": "7.39 ± 1.97", "unit": "nM"}, {"measurement": "EC50", "setting": "[3]; Severe acute respiratory syndrome coronavirus 2, VeroE6/TMPRSS2, Omicron BQ. 1. 1, strain TY41-796", "result": "11 ± 1.7", "unit": "nM"}, {"measurement": "EC50", "setting": "[3]; Severe acute respiratory syndrome coronavirus 2, VeroE6/TMPRSS2, Omicron CH. 1. 1. 11, strain TY41-832", "result": "5.69 ± 2.44", "unit": "nM"}, {"measurement": "EC50", "setting": "[3]; Severe acute respiratory syndrome coronavirus 2, VeroE6/TMPRSS2, Omicron XBB. 1, strain TY41-795", "result": "5.11 ± 2.15", "unit": "nM"}, {"measurement": "EC50", "setting": "[3]; Severe acute respiratory syndrome coronavirus 2, VeroE6/TMPRSS2, Omicron XBB. 1. 5, strain 23-018", "result": "7.4 ± 1.08", "unit": "nM"}, {"measurement": "EC50", "setting": "[3]; Severe acute respiratory syndrome coronavirus 2, VeroE6/TMPRSS2, Omicron XBB. 1. 9. 1, strain TY41-951", "result": "12.6 ± 0.9", "unit": "nM"}, {"measurement": "EC50", "setting": "[3]; Severe acute respiratory syndrome coronavirus 2, VeroE6/TMPRSS2, Omicron XBB. 1. 16, strain TY41-984", "result": "7.06 ± 2", "unit": "nM"}, {"measurement": "EC50", "setting": "[3]; Severe acute respiratory syndrome coronavirus 2, VeroE6/TMPRSS2, Omicron XBF, strain TY41-831", "result": "6.27 ± 3.3", "unit": "nM"}, {"measurement": "EC50", "setting": "[3]; Severe acute respiratory syndrome coronavirus 2, VeroE6/TMPRSS2, Omicron XE, strain TY41-686", "result": "7.1 ± 2.59", "unit": "nM"}, {"measurement": "EC90", "setting": "[4]; extrapolated to 100% hamster serum by linear regression, read-out: Hamster serum PA-EC90", "result": 8.17, "unit": "nM"}, {"measurement": "EC90", "setting": "[4]; extrapolated to 100% human serum by linear regression, read-out: Human serum PA-EC90", "result": 7.9, "unit": "nM"}, {"measurement": "EC90", "setting": "[4]; extrapolated to 100% mouse serum by linear regression, read-out: Mouse serum PA-EC90", "result": 19.8, "unit": "nM"}, {"measurement": "body weight", "setting": "[5]", "result": "the decrease in body weight was suppressed"}, {"measurement": "survival", "setting": "[6]", "result": "all hamsters survived until 10 days after infection"}, {"measurement": "body weight loss", "setting": "[6]; up to 10 days", "result": "suppression of the body weight loss was observed"}, {"measurement": "numbers of non-infected hamsters (Contact) in which viral titers in nasal lavage fluid or supernatants of lung homogenate reached the detection limit (1.8 log10 TCID50/mL) or higher", "setting": "[7]; 3 mg/kg single subcutaneous to Contact 12 hours prior to co-housing", "result": "5/6"}, {"measurement": "numbers of non-infected hamsters (Contact) in which viral titers in nasal lavage fluid or supernatants of lung homogenate reached the detection limit (1.8 log10 TCID50/mL) or higher", "setting": "[7]; 10 mg/kg single subcutaneous to Contact 12 hours prior to co-housing", "result": "6/6"}, {"measurement": "numbers of non-infected hamsters (Contact) in which viral titers in nasal lavage fluid or supernatants of lung homogenate reached the detection limit (1.8 log10 TCID50/mL) or higher", "setting": "[7]; 30 mg/kg single subcutaneous to Contact 12 hours prior to co-housing", "result": "3/6"}, {"measurement": "numbers of non-infected hamsters (Contact) in which viral titers in nasal lavage fluid or supernatants of lung homogenate reached the detection limit (1.8 log10 TCID50/mL) or higher", "setting": "[7]; 90 mg/kg single subcutaneous to Contact 12 hours prior to co-housing", "result": "0/6"}, {"measurement": "lung weight/body weight", "setting": "[8]", "result": "8.24 mg/g and 5.75 mg/g and 5.57 mg/g"}, {"measurement": "EC50", "setting": "[9]", "result": "3570 ± 510", "unit": "nM"}, {"measurement": "body weight loss", "setting": "[10]; hamster, in vivo", "result": "suppression of the body weight loss was observed"}, {"measurement": "viral titers in nasal turbinate homogenates", "setting": "[10]; hamster, in vivo", "result": "4.80 log10 TCID50/mL and 3.36 log10 TCID50/mL and 5.38 log10 TCID50/mL and 5.01 log10 TCID50/mL"}, {"measurement": "plasma concentration exhibiting the effect of suppressing viral proliferation in lung and nasal turbinate homogenates", "setting": "[10]; hamster, in vivo, sc", "result": "≥ 12", "unit": "ng/mL"}, {"measurement": "plasma concentrations at the time of viral infection exhibiting the effect of suppressing body weight loss", "setting": "[10]; prophylactic subcutaneous administration", "result": "≥ 6", "unit": "ng/mL"}, {"measurement": "EC50", "setting": "[2]", "result": 1.66, "unit": "nM"}, {"measurement": "EC50", "setting": "[11]", "result": "92 ± 21", "unit": "nM"}, {"measurement": "CC50 at 72 h", "setting": "[12]", "result": "> 100000", "unit": "nM"}, {"measurement": "plasma concentrations immediately before infection", "setting": "3 mg/kg subcutaneous, administered one day prior to infection", "result": 6.1, "unit": "ng/mL"}, {"measurement": "plasma concentrations immediately before infection", "setting": "3 mg/kg subcutaneous, administered three days prior to infection", "result": 5.9, "unit": "ng/mL"}, {"measurement": "plasma concentrations immediately before infection", "setting": "10 mg/kg subcutaneous, administered one day prior to infection", "result": 12.5, "unit": "ng/mL"}, {"measurement": "plasma concentrations immediately before infection", "setting": "10 mg/kg subcutaneous, administered three days prior to infection", "result": 3.0, "unit": "ng/mL"}, {"measurement": "EC90", "setting": "[13]", "result": "2.41 ± 1.61", "unit": "nM"}]}]}
